Patent US7662778B2, “Histone deacetylase inhibitor and process for producing the same” (Riken, priority 2003, dated 2010)
Where two headings read alike, the source gives them in different places. Where a SMILES comes first, the peptide text is derived from it. [ ]: non-standard residue; d: D form. The star is where a group is joined. hLys(Nζ-OH,Nζ-For) = N[C@@H](CCCCCN(O)C=O)C(=O)O; Asu = N[C@@H](CCCCCC(=O)O)C(=O)O; NH(2-NH2-phenyl) = Nc1ccccc1N*; dPip = O=C(O)[C@H]1CCCCN1; X1 = Oc1ccccc1N*; X2 = Nc1ccccc1O*; X3 = Sc1ccccc1N*

Columns and labels:
[1] = target: T1, human HDAC1 (Homo sapiens, UniProt Q13547); assay: HDAC inhibitory activity in vitro (coumarin-labeled acetylated histone peptide), HDAC1; format: biochemical
T1 construct: FLAG; made in house; host or cells: 293T cells, transient transfection; anti-FLAG immunoprecipitation and FLAG peptide elution

[2] = target: T2, human HDAC4 (Homo sapiens, UniProt P56524); assay: HDAC inhibitory activity in vitro (coumarin-labeled acetylated histone peptide), HDAC4; format: biochemical
T2 construct: FLAG; made in house; host or cells: 293T cells, transient transfection; anti-FLAG immunoprecipitation and FLAG peptide elution

[3] = target: T3, mouse HDAC6 (Mus musculus, UniProt Q9Z2V5); assay: HDAC inhibitory activity in vitro (coumarin-labeled acetylated histone peptide), HDAC6; format: biochemical
T3 construct: HA; made in house; host or cells: 293T cells, transient transfection; anti-HA immunoprecipitation and HA peptide elution
T3 sequence (Q9Z2V5 1-1149): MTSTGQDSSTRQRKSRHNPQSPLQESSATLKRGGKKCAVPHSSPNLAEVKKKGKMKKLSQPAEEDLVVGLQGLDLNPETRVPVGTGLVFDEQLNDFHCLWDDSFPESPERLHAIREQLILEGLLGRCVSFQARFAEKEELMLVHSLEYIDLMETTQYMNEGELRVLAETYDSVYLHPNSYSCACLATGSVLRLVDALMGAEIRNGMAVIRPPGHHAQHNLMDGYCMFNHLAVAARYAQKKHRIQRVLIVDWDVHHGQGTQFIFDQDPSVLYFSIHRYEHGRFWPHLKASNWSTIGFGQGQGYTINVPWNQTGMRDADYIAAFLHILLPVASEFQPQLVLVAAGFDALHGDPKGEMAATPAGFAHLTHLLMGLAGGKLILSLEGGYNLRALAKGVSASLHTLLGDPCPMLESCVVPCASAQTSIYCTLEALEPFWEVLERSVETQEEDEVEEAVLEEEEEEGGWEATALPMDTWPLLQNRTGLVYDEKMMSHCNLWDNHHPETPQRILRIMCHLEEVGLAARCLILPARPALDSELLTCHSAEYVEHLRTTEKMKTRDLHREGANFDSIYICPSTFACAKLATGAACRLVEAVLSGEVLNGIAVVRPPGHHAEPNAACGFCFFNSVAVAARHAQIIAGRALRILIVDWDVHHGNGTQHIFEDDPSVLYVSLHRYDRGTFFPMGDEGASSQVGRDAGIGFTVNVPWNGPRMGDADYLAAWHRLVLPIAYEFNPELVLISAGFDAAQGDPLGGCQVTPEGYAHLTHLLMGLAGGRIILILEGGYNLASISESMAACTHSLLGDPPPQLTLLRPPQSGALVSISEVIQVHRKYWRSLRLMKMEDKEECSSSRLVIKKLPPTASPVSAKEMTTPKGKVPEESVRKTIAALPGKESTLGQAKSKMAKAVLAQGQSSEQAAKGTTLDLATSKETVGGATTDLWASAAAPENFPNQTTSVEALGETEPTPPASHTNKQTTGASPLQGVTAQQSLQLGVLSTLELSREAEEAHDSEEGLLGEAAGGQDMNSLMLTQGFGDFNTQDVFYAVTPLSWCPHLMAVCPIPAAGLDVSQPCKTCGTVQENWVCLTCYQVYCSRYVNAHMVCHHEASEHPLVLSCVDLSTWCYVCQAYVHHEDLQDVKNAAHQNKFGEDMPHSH

[4] = amide bond, 12-membered ring, DMF
[5] = test system: human wild-type p21 promoter; assay: p21 promoter-inducing activity (luciferase) in MFLL-9 cells; format: cell-based
Description: The HDAC inhibitory activity in vivo was measured using p21 promoter-inducing activity as an index, as shown below. The MFLL-9 cells employed for the experiments stably maintained fusion genes of human wild-type p21 promoter and luciferase (Dr. B. Vogelstaein). Using phenol red-free DMEM medium comprising 10% FBS, cultivation was carried out in a steam-saturated incubator at 37° C. with 5% carbon dioxide. The MFLL-9 cells were plated at a density of 85,000 cells/well on a 96-well microtiter plate, each in 99 μl of the above-mentioned medium. These were then cultivated for six hours. One μl of test compound solution was added to each well, which was then cultured for another 18 hours.
The intensity of luminescence caused by the product of the enzyme reaction for intracellular luciferase expression was measured using Luc Lite (Packard BioScience Company).
HDAC inhibitory activity in an in vivo system was measured using p21 promoter induction as index. The experimental method followed that of Example 11.

[6] = Table 1, 37° C., 30 minutes, read-out: IC50 (μM) HDAC1
[7] = Table 1, 37° C., 30 minutes, read-out: IC50 (μM) HDAC4
[8] = Table 1, 37° C., 30 minutes, read-out: IC50 (μM) HDAC6
[9] = Table 1, MFLL-9 cells, 18 hours, concentration corresponding to 50% of the maximum active value for TSA
[10] = Table 3, method of Example 11, read-out: IC50(μM) HDAC1
[11] = Table 3, method of Example 11, read-out: IC50(μM) HDAC4
[12] = Table 3, method of Example 11, read-out: IC50(μM) HDAC6
[13] = Table 3, method of Example 11, 50% of the maximum activity observed in TSA

T2 sequence (P56524 whole entry): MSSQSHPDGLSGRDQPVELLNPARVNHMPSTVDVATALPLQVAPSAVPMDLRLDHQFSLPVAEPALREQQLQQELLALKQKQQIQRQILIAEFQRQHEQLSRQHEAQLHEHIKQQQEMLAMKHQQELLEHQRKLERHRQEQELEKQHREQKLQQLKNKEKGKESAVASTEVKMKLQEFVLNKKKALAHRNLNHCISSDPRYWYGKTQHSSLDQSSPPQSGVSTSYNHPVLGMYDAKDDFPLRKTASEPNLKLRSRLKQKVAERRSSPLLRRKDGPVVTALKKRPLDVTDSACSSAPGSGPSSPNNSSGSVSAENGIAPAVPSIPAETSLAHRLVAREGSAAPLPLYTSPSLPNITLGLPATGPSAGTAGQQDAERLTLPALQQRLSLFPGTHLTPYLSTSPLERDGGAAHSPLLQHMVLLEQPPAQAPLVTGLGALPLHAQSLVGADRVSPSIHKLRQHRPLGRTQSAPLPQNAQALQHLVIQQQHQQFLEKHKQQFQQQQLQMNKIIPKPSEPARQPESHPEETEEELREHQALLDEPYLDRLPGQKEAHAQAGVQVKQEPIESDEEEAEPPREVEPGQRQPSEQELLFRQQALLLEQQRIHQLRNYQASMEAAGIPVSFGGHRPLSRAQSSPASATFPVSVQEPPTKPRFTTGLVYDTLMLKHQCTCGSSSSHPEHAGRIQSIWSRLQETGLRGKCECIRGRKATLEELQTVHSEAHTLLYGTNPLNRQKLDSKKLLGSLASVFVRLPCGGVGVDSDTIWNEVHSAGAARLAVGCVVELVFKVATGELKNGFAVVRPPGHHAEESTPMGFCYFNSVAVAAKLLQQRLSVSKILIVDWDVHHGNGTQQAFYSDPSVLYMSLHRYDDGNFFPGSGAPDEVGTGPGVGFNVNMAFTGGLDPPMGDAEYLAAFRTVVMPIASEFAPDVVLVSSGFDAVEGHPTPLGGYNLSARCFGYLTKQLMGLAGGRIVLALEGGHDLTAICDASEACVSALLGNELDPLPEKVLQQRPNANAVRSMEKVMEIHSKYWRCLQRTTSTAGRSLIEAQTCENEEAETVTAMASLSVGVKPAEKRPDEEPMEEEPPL
T1 sequence (Q13547 whole entry): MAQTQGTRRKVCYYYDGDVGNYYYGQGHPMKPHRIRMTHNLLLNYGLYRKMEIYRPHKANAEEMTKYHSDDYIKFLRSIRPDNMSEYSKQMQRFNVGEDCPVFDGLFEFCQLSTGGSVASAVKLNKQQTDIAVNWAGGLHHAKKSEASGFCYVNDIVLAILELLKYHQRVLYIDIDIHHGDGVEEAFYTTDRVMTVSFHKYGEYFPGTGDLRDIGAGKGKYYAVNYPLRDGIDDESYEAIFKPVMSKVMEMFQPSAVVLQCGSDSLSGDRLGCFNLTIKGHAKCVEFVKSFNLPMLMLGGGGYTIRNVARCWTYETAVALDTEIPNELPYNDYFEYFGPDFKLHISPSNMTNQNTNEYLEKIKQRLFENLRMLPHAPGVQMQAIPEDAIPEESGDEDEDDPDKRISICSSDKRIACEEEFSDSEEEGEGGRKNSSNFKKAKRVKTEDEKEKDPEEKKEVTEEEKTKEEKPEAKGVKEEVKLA

CC[C@H](C)[C@@H]1NC(=O)[C@@H](Cc2ccc(OC)cc2)NC(=O)[C@H](CCCCCCN(O)C=O)NC(=O)[C@@H]2CCCCN2C1=O [N(OH)COH Cyclo(X-y(Me)-I-Pip), n = 6]
IC50 [1, 6]: 13.5 µM | IC50 [2, 7]: 18.9 µM | IC50 [3, 8]: 11.2 µM

CC[C@H](C)[C@@H]1NC(=O)[C@@H](Cc2ccc(OC)cc2)NC(=O)[C@H](CCCCCCN(C=O)OCc2ccccc2)NC(=O)C2CCCCN2C1=O (mixture of isomers) [Cyclo(-L-A2oc(For, OBzl)-D-Tyr(Me)-L-Ile-DL-Pip-)]
ring closure, isolated yield ([4]; from H-dTyr(Me)-Ile-DL-Pip-A2oc(For,OBzl)-OH, HATU/DIEA, 1.6 mM, 25.0 °C): 21%

CC[C@H](C)[C@@H]1NC(=O)[C@@H](Cc2ccc(OC)cc2)NC(=O)[C@H](CCCCN(C=O)OCc2ccccc2)NC(=O)[C@H]2CCCCN2C1=O [cyclo(-L-Lys(For, OBzl)-D-Tyr(Me)-L-Ile-D-Pip-)]
ring closure, isolated yield ([4]; from H-dTyr(Me)-Ile-dPip-Lys(For,OBzl)-OH?, HATU/DIEA, 0.4 mM, 25.0 °C): 25%

cyclo(-L-Aph-D-Tyr(Me)-L-Ile-D-Pro-)
ring closure, isolated yield ([4]; HATU/DIEA, 2.7 mM, 25.0 °C, 2 steps): 11%

CC[C@H](C)[C@@H]1NC(=O)[C@@H](Cc2ccc(OC)cc2)NC(=O)[C@H](CCCCCN(O)C=O)NC(=O)[C@H]2CCCN2C1=O [N(OH)COH Cyclo(X-y(Me)-I-p), n = 5] (cyclo([hLys(Nζ-OH,Nζ-For)][dY](Me)I[dP]))
IC50 [2, 7]: 0.074 µM | IC50 [3, 8]: 0.78 µM

CC[C@H](C)[C@@H]1NC(=O)[C@@H](Cc2ccc(OC)cc2)NC(=O)[C@H](CCCCCC(=O)O)NC(=O)[C@H]2CCCN2C1=O [COOH, cyclo(L-Asu-D-Tyr(Me)-L-Ile-D-Pro)] (cyclo([Asu][dY](Me)I[dP]))
IC50 [1, 6]: 4.07 µM | IC50 [2, 7]: 5.69 µM | IC50 [3, 8]: > 500 µM | EC50 [5, 9]: > 100 µM

CC[C@H](C)[C@@H]1NC(=O)[C@@H](Cc2ccc(OC)cc2)NC(=O)[C@H](CCCCCSC)NC(=O)[C@H]2CCCN2C1=O [SMe]
EC50 [5, 9]: > 100 µM

CC[C@H](C)[C@@H]1NC(=O)[C@@H](Cc2ccc(OC)cc2)NC(=O)[C@H](CCCCCC(=O)Oc2ccccc2N)NC(=O)[C@H]2CCCN2C1=O [OAPNH, cyclo(L-Asu(OAPNH)-D-Tyr(Me)-L-Ile-D-Pro)] (cyclo([Asu](X2)[dY](Me)I[dP]))
IC50 [1, 10]: 0.4 µM | IC50 [2, 11]: 0.24 µM | IC50 [3, 12]: 441 µM | EC50 [5, 13]: 12.9 µM

CC[C@H](C)[C@@H]1NC(=O)[C@@H](Cc2ccc(OC)cc2)NC(=O)[C@H](CCCCN(O)C=O)NC(=O)[C@H]2CCCCN2C1=O [N(OH)COH Cyclo(X-y(Me)-I-pip), n = 4]
IC50 [1, 6]: 33.9 µM | IC50 [2, 7]: 25.2 µM | IC50 [3, 8]: 14.3 µM

CC[C@H](C)[C@@H]1NC(=O)[C@@H](Cc2ccc(OC)cc2)NC(=O)[C@H](CCCCCN(O)C=O)NC(=O)[C@H]2CCCCN2C1=O [N(OH)COH Cyclo(X-y(Me)-I-pip), n = 5, cyclo(-L-Hly(For, OH)-D-Tyr(Me)-L-Ile-D-Pip-)] (cyclo(I[dPip][hLys(Nζ-OH,Nζ-For)][dY](Me)))
IC50 [1]: 0.067 µM | IC50 [2]: 0.13 µM | IC50 [3]: 0.18 µM | EC50 [5, 9]: 3.73 µM

CC[C@H](C)[C@@H]1NC(=O)[C@@H](Cc2ccc(OC)cc2)NC(=O)[C@H](CCCCCCN(O)C=O)NC(=O)[C@H]2CCCCN2C1=O [N(OH)COH Cyclo(X-y(Me)-I-pip), n = 6]
IC50 [1, 6]: 6.36 µM | IC50 [2, 7]: 7.02 µM | IC50 [3, 8]: 12.2 µM

CC[C@H](C)[C@@H]1NC(=O)[C@@H](Cc2ccc(OC)cc2)NC(=O)[C@H](CCCCCC(=O)Nc2ccccc2S)NC(=O)[C@H]2CCCN2C1=O [OATP, cyclo(L-Asu(OATP)-D-Tyr(Me)-L-Ile-D-Pro)] (cyclo([Asu](X3)[dY](Me)I[dP]))
IC50 [1]: 2.03 µM | IC50 [2]: 0.23 µM | IC50 [3]: 408 µM | EC50 [5, 13]: > 100 µM

CC[C@H](C)[C@@H]1NC(=O)[C@@H](Cc2ccc(OC)cc2)NC(=O)[C@H](CCCCCN(O)C=O)NC(=O)[C@@H]2CCCN2C1=O [N(OH)COH Cyclo(X-y(Me)-I-P), n = 5] (cyclo([hLys(Nζ-OH,Nζ-For)][dY](Me)IP))
IC50 [2, 7]: 0.09 µM | IC50 [3, 8]: 0.029 µM

Cyclo(-L-Asu(OBzl)-D-Tyr(Me)-L-Ile-D-Pro-) [COOBzI]
EC50 [5, 9]: > 100 µM

CC[C@H](C)[C@@H]1NC(=O)[C@@H](Cc2ccc(OC)cc2)NC(=O)[C@H](CCCCCC(=O)Nc2ccccc2N)NC(=O)[C@H]2CCCN2C1=O [OPD, cyclo(L-Asu(OPD)-D-Tyr(Me)-L-Ile-D-Pro)] (cyclo([Asu](NH(2-NH2-phenyl))[dY](Me)I[dP]))
IC50 [1, 10]: 4.04 µM | IC50 [2, 11]: 15.7 µM | IC50 [3, 12]: 321 µM | EC50 [5, 13]: 30.9 µM

CC[C@H](C)[C@@H]1NC(=O)[C@@H](Cc2ccc(OC)cc2)NC(=O)[C@H](CCCCOn2nnc3cccnc32)NC(=O)[C@H]2CCCN2C1=O [cyclo(-L-Ab6-D-Tyr(Me)-L-Ile-D-Pro-)]
ring closure, isolated yield ([4]; from H-dTyr(Me)-Ile-dPro-Ab6-OH, HBTU/HOBt/DIEA, 5.4 mM, 2 steps): 32%

CC[C@H](C)[C@@H]1NC(=O)[C@@H](Cc2ccc(OC)cc2)NC(=O)[C@H](CCCCCS(C)(=O)=O)NC(=O)[C@H]2CCCN2C1=O [SO2Me]
EC50 [5, 9]: > 100 µM

CC[C@H](C)[C@@H]1NC(=O)[C@@H](Cc2ccc(OC)cc2)NC(=O)[C@H](CCCCS(=O)(=O)CC(=O)C(F)(F)F)NC(=O)[C@H]2CCCN2C1=O [Stfk]
EC50 [5, 9]: > 100 µM

CC[C@H](C)[C@@H]1NC(=O)[C@@H](Cc2ccc(OC)cc2)NC(=O)[C@H](CCCCCC(=O)Nc2ccccc2O)NC(=O)[C@H]2CCCN2C1=O [OAPOH, cyclo(L-Asu(OAPOH)-D-Tyr(Me)-L-Ile-D-Pro)] (cyclo([Asu](X1)[dY](Me)I[dP]))
IC50 [1, 10]: 1.22 µM | IC50 [2, 11]: 0.23 µM | EC50 [5, 13]: 55.1 µM

CC[C@H](C)[C@@H]1NC(=O)[C@@H](Cc2ccc(OC)cc2)NC(=O)[C@H](CCCCN(O)C=O)NC(=O)[C@@H]2CCCCN2C1=O [N(OH)COH Cyclo(X-y(Me)-I-Pip), n = 4]
IC50 [1, 6]: 23.9 µM | IC50 [2, 7]: 17.5 µM | IC50 [3, 8]: 8.19 µM

CC[C@H](C)[C@@H]1NC(=O)[C@@H](Cc2ccc(OC)cc2)NC(=O)[C@H](CCCCCC(=O)OC)NC(=O)[C@H]2CCCN2C1=O [COOMe, cyclo(-L-Asu(OMe)-D-Tyr(Me)-L-Ile-D-Pro-)] (cyclo([Asu](OMe)[dY](Me)I[dP]))
IC50 [1, 6]: 0.12 µM | IC50 [2, 7]: 0.07 µM | IC50 [3, 8]: > 500 µM | EC50 [5, 9]: 3.95 µM
